The values that follow are results of earlier work, collected in patent US20090264528A1, “SERINE PALMITOYLCOA TRANSFERASE (SPT) INHIBITION BY MYRIOCIN OR GENETIC DEFICIENCY DECREASES CHOLESTEROL ABSORPTION” (The Research Foundation of State University of New York, priority 2008, published 2009).

Molecules are shown by their SMILES.

The conditions of the series: apoE KO mice; cited from earlier work.

As for `CCCCCCCCc1ccc(CCC(N)(CO)CO)cc1` [FTY720], the plasma cholesterol levels result is reported as “increases”.
